The values that follow come from patent US7718638B2, “(20R)-23,23-difluoro-2-methylene-19-nor-bishomopregnacalciferol-vitamin D analogs” (Wisconsin Alumni Research Foundation, priority 2007, dated 2010).

Assay [1] deals with Sprague-Dawley rats. Kind of assay: Intestinal calcium transport (everted gut sac) in vitamin D-deficient rats. Format: in vivo, rat. The note with it: FIG. 5; for intestinal calcium transport: everted gut sac. Here is the method: (§1) Intestinal Calcium Transport and Bone Calcium Mobilization
(§2) Male, weanling Sprague-Dawley rats were placed on Diet 11 (0.47% Ca) diet+AEK oil for one week followed by Diet 11 (0.02% Ca)+AEK oil for 3 weeks. The rats were then switched to a diet containing 0.47% Ca for one week followed by two weeks on a diet containing 0.02% Ca. Dose administration began during the last week on 0.02% calcium diet. Four consecutive ip doses were given approximately 24 hours apart. Twenty-four hours after the last dose, blood was collected from the severed neck and the concentration of serum calcium determined as a measure of bone calcium mobilization. The first 10 cm of the intestine was also collected for intestinal calcium transport analysis using the everted gut sac method.

The next assay deals with HL-60 cells. Put plainly: HL-60 cell differentiation (nitro blue tetrazolium reduction). Format: cell-based, human. The note with it: FIG. 2; for EC50: HL-60 cells, 4 days. Here is the method: The study drugs were dissolved in ethanol and the concentrations determined using UV spectrophotometry. Serial dilutions were prepared so that a range of drug concentrations could be tested without changing the final concentration of ethanol (≦0.2%) present in the cell cultures.
Human promyelocytic leukemia (HL60) cells were grown in RPMI-1640 medium containing 10% fetal bovine serum. The cells were incubated at 37° C. in the presence of 5% CO2.
HL60 cells were plated at 1.2×10^5 cells/ml. Eighteen hours after plating, cells in duplicate were treated with drug. Four days later, the cells were harvested and a nitro blue tetrazolium reduction assay was performed (Collins et al., 1979; J. Exp. Med. 149:969-974). The percentage of differentiated cells was determined by counting a total of 200 cells and recording the number that contained intracellular black-blue formazan deposits. Verification of differentiation to monocytic cells was determined by measuring phagocytic activity (data not shown).

Assay [2] relates to Sprague-Dawley rats. Put plainly: Bone calcium mobilization (serum calcium) in vitamin D-deficient rats. The class given is in vivo, rat. The settings on record: FIG. 4; for bone calcium mobilization (serum calcium levels): dose not given, vitamin D-deficient rats on 0.02% Ca diet; for bone calcium mobilization: rats on 0.02% Ca diet. Here is the method:
as §1, §2

The subject of assay [3] is 24-hydroxylase (24Ohase) gene promoter in ROS 17/2.8 (bone) cells. Put plainly: In vitro transcription assay (24-hydroxylase promoter luciferase reporter). Format: cell-based. The settings on record: FIG. 3. Here is the method:
In Vitro Transcription Assay
Transcription activity was measured in ROS 17/2.8 (bone) cells that were stably transfected with a 24-hydroxylase (24Ohase) gene promoter upstream of a luciferase reporter gene (Arbour et al., 1998). Cells were given a range of doses. Sixteen hours after dosing the cells were harvested and luciferase activities were measured using a luminometer.
RLU=relative luciferase units.

Assay [4] has as its target T1, full-length recombinant rat vitamin D receptor (Rattus norvegicus, UniProt P13053).
T1 construct: Full-length recombinant rat receptor was expressed in E. coli; histidine tag (C); made in house; host or cells: E. coli BL21 (DE3) Codon Plus RIL
T1 sequence (P13053 1-423): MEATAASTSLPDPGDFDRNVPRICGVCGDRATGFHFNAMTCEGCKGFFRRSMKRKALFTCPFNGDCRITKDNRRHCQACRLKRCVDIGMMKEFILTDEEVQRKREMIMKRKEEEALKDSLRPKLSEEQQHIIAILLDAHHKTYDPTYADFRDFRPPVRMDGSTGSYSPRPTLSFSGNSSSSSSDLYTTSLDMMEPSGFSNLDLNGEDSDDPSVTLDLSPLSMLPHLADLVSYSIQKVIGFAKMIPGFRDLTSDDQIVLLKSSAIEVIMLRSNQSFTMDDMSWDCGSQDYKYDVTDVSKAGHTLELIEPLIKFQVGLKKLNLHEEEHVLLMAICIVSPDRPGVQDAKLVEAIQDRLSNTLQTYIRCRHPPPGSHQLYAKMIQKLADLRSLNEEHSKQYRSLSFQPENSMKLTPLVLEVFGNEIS
Put plainly: Vitamin D receptor competitive binding with [3H]-1,25(OH)2D3. The settings on record: FIG. 1. The text has this:
Vitamin D Receptor Binding
Full-length recombinant rat receptor was expressed in E. coli BL21 (DE3) Codon Plus RIL cells and purified to homogeneity using two different column chromatography systems. The first system was a nickel affinity resin that utilizes the C-terminal histidine tag on this protein. The protein that was eluted from this resin was further purified using ion exchange chromatography (S-Sepharose Fast Flow). Aliquots of the purified protein were quick frozen in liquid nitrogen and stored at −80° C. until use. For use in binding assays, the protein was diluted in TEDK50 (50 mM Tris, 1.5 mM EDTA, pH 7.4, 5 mM DTT, 150 mM KCl) with 0.1% Chaps detergent. The receptor protein and ligand concentration were optimized such that no more than 20% of the added radiolabeled ligand was bound to the receptor.
Radiolabeled and unlabeled ligands were added to 100 mcl of the diluted protein at a final ethanol concentration of ≦10%, mixed and incubated overnight on ice to reach binding equilibrium. The following day, 100 mcl of hydroxylapatite slurry (50%) was added to each tube and mixed at 10-minute intervals for 30 minutes. […] After the final wash, the pellets were transferred to scintillation vials containing 4 ml of Biosafe II scintillation cocktail, mixed and placed in a scintillation counter. Total binding was determined from the tubes containing only radiolabeled ligand.

Entries after “also recorded” stand apart in the source; their conditions may differ.

What is called EC50 is the concentration at which the effect is half-maximal. Regarding `C=C1/C(=C\C=C2/CCC[C@]3(C)[C@@H]([C@H](C)CCCC(C)(C)O)CC[C@@H]23)C[C@@H](O)C[C@@H]1O` [1,25(OH)2D3, 1α,25-dihydroxyvitamin D3, reference compound], in the assay with Sprague-Dawley rats [1] (87 pmol/day), the intestinal calcium transport entry is reported as “promotes a significant increase”. The EC50 with HL-60 cells came out at 2 nM. Further, in the assay on Sprague-Dawley rats [2], the “bone calcium mobilization (serum calcium levels)” value is on record as “increased serum calcium levels”.
For orientation: Ki means a dissociation constant, usually derived from enzyme kinetics or from competition with a known ligand. As to `C=C1[C@H](O)CC(=C/C=C2\CCC[C@]3(C)[C@@H]([C@@H](C)CC(F)F)CC[C@@H]23)C[C@H]1O` [FF-44, (20R)-23,23-difluoro-1α-hydroxy-2-methylene-19-nor-bishomopregnacalciferol], the EC50 was found to be 10 nM in assay [3] (ROS 17/2.8 cells, 24Ohase-luciferase, 16 h, read-out: EC50, transcriptional activity in bone cells) and 100 nM in the assay with HL-60 cells (Homo sapiens, 96 h). Also, the “transcriptional activity in bone cells as compared to 1α,25-dihydroxyvitamin D3” value in assay [3] (in words) is on record as “about the same transcriptional activity”. For the same compound, the results for the intestinal calcium transport entry with Sprague-Dawley rats [1] (2340 pmol/day) and in the assay on Sprague-Dawley rats [1] (35100 pmol/day) were “does not promote intestinal calcium transport” and “no significant intestinal calcium transport activity”, respectively. In addition, the “intestinal calcium transport activity as compared to 1,25(OH)2D3” value in the assay on Sprague-Dawley rats [1] (in words, dose not stated) is “very little activity”. In the assay with HL-60 cells (in words), the “potency on HL-60 cell differentiation as compared to 1,25(OH)2D3” value is given as “almost as potent as 1,25(OH)2D3”. The bone calcium mobilization entry with Sprague-Dawley rats [2] (2340 pmol/day ip for 4 consecutive days) is recorded as “did not result in mobilization of bone calcium”; in the assay on Sprague-Dawley rats [2] (35100 pmol/day ip for 4 consecutive days) it was “without any effect”. For the same compound, in the assay with Sprague-Dawley rats [2], the “bone calcium mobilization (serum calcium levels)” value is “very little bone calcium mobilization activity; also recorded: little, if any, activity in mobilizing calcium from bone”. The Ki in assay [4] (full-length recombinant rat VDR, read-out: Ki, competition with [3H]-1,25(OH)2D3 for binding to the vitamin D receptor) is 0.2 nM. Further, in assay [4] (in words), the “binding to the vitamin D receptor as compared to 1,25-(OH)2D3” value is “bound almost equally”.
